{
  "source": "patent USRE35145E",
  "about": "“Substituted phthalocyanine” (Zeneca Limited, priority 1987, dated 1996)",
  "key": {"[1]": {"experiment": "Solubility in water, MEK, ethanol, glycols", "assay_type": "physicochemical", "conditions": "25° C., percentages by weight", "excerpt": "Various applications of the present compounds, especially for printing inks, require products which are soluble in solvents of differing polarities. The major requirements are for water-soluble products (water and water-alcohol or water-glycol mixtures), alcohol (typically methanol, ethanol and propanol) and glycol (typically ethylene glycol and diethylene glycol) soluble products and ketone (typically MEK) soluble products."}, "[2]": {"experiment": "Near infra-red absorption spectrum in solution (WLmax, ECmax, band width)", "assay_type": "physicochemical", "excerpt": "The region from 750 to 1100 nm is of particular importance for optical character recognition (OCR) and for energy conversion, e.g. from laser radiation to heat. Many OCR systems use solid state semi-conductor lasers, which generally emit at 780-830 nm, as the radiation source and photodiode detectors based on silicon which have peak sensitivity around 900 rim.\nWLmax is the wavelength of the absorption maximum; and\nECmax is the extinction coefficient at the absorption maximum."}},
  "data": [
    {"substance": "hepta(4-methylphenylthio)-tetra(1-amino-2-thio-phen-1,2-ylene)-CuPc [OTCPC]", "values": [
      {"measurement": "Solubility", "setting": "[1]", "result": 10, "unit": "%"},
      {"measurement": "WLmax (wavelength of the absorption maximum)", "setting": "[2]; in CH3 Cl", "result": 890, "unit": "nm"},
      {"measurement": "ECmax (extinction coefficient at the absorption maximum)", "setting": "[2]; in MEK", "result": "46,000"}
    ]}
  ]
}
